We go through three compounds from article PMC10831447 (Molecular Cancer Therapeutics, 2023).

The subject of one data set is 25 RCC PDX models. The data set is described as follows: RCC PDX in vivo study, all models. Also noted: species or system mouse.
The conditions of data set [1]: cited from earlier work.
Data set [2] deals with A549 p53 KO. The data set is described as follows: Colony formation assay. The data set is classed as cell-based, human. The following applies: isogenic A549 TP53 KO; 1E−05, 2.5E−06, 5E−07 mol/L.
Data set [3] concerns A549 wild-type. Put plainly: Colony formation assay. The note with it: 1E−05, 2.5E−06, 5E−07 mol/L. The format is cell-based, human.
The test system of data set [4] is A549 wild-type. Put plainly: Cell-cycle analysis by FACS. The data set is classed as cell-based, human. The note with it: A549 parental; 24 hours; M8891 1E−06 mol/L, nutlin-3A 3E−06 mol/L. (In general: Flow cytometry measures light scatter and fluorescence of single cells or particles in a stream.)
Data set [5] concerns A549 p53 KO. Put plainly: Cell-cycle analysis by FACS. The format is cell-based, human. The note with it: A549 TP53 KO; M8891 1E−06 mol/L, nutlin-3A 3E−06 mol/L.

With `CCN(CC)CCNC(=O)c1c(C)[nH]c(/C=C2\C(=O)Nc3ccc(F)cc32)c1C` [Sunitinib], in the data set on 25 RCC PDX models (across all 25 PDX models), the “integrated survival analysis based on RTV changes (AUC)” value was “clear survival benefit”. Further, the “antitumor activity in cohort of 25 RCC PDX models” value in the data set with 25 RCC PDX models (dose and schedule tested in this study) is listed as “moderate”.
For `CO[C@@H]1[C@H](OC(=O)NC(=O)CCl)CC[C@]2(CO2)[C@H]1[C@@]1(C)O[C@@H]1CC=C(C)C` [TNP-470], in data set [1], the elimination entry is reported as “rapid elimination” and the side effects result is on record as “neurologic side effects”. The colony formation entry in the data set with A549 p53 KO [2] is “resistant”. The colony formation result in the data set on A549 wild-type [3] is listed as “blocked”.
Consider `COc1ccc(C2=N[C@@H](c3ccc(Cl)cc3)[C@@H](c3ccc(Cl)cc3)N2C(=O)N2CCNC(=O)C2)c(OC(C)C)c1` [nutlin-3A], for which the colony formation entry with A549 p53 KO [2] is given as “resistant”; in the data set on A549 wild-type [3], “significantly reduced colony formation”. Further, the cell-cycle distribution result in the data set with A549 wild-type [4] is “more prominent arrest in G2–M”. Further, the “shift in cell-cycle distribution” value with A549 p53 KO [5] is reported as “not observed”.
